Values quoted from earlier work as cited in patent US6054469A, “Substituted tetrahydropyridine derivatives acting on 5-HT receptors” (Merck Sharp & Dohme Ltd., priority 1995, dated 2000).

Conditions: therapeutic doses

CNS(=O)(=O)Cc1ccc2[nH]cc(CCN(C)C)c2c1 [sumatriptan]
adverse events on administration to humans: adverse cardiovascular events
